Data taken from PubChem BioAssay AID2060906 (Molecular Pharmacology Branch, DTP, NCI, 2025).

System: 485176-168-R4-J1-PDC complex spheroid growth
Test: Anticancer human tumor 485176-168-R4-J1-PDC patient-derived pancreatic adenocarcinoma cell line growth inhibition [RAS]
Settings: for IC50: curve of first compound; for viability, T/C: stronger effect = lower value
Summary of the method: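 Tumour cells grown as complex spheroids with HUVEC endothelial cells and mesenchymal stem cells, treated with RAS pathway inhibitor combinations. Each agent spans half-log steps from near clinical Cmax, or 10 microM where Cmax is unknown.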

[1] = second compound 0.00316 µM, first compound 0.0316 µM
[2] = second compound 0.00316 µM, first compound 0.1 µM
[3] = second compound 0.00316 µM, first compound 0.316 µM
[4] = second compound 0.00316 µM, first compound 1 µM
[5] = second compound 0.01 µM, first compound 0.0316 µM
[6] = second compound 0.01 µM, first compound 0.1 µM
[7] = second compound 0.01 µM, first compound 0.316 µM
[8] = second compound 0.01 µM, first compound 1 µM
[9] = second compound 0.0316 µM, first compound 0.0316 µM
[10] = second compound 0.0316 µM, first compound 0.1 µM
[11] = second compound 0.0316 µM, first compound 0.316 µM
[12] = second compound 0.0316 µM, first compound 1 µM
[13] = second compound 0.1 µM, first compound 0.0316 µM
[14] = second compound 0.1 µM, first compound 0.1 µM
[15] = second compound 0.1 µM, first compound 0.316 µM
[16] = second compound 0.1 µM, first compound 1 µM
[17] = second compound 0.316 µM, first compound 0.0316 µM
[18] = second compound 0.316 µM, first compound 0.1 µM
[19] = second compound 0.316 µM, first compound 0.316 µM
[20] = second compound 0.316 µM, first compound 1 µM
[21] = second compound 1 µM, first compound 0.0316 µM
[22] = second compound 1 µM, first compound 0.1 µM
[23] = second compound 1 µM, first compound 0.316 µM
[24] = second compound 1 µM, first compound 1 µM
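Further: spheroids exposed to compounds for seven days before readout.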
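Wherever viability, T/C is given: luminescence viability expressed relative to DMSO vehicle wells set as 100%.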

Question: With CCN1CCN(Cc2ccc(Nc3ncc(F)c(-c4cc(F)c5nc(C)n(C(C)C)c5c4)n3)nc2)CC1 + C=CC(=O)N1CCN(c2nc(OCC3CCCN3C)nc3c(F)c(-c4nc(N)cc(C)c4C(F)(F)F)c(Cl)cc23)C(C)C1 as the compound, how does the IC50 (second compound 0.00316 µM) read?
Answer: The IC50 was > 1000 nM.

Question: What about the IC50 (second compound 0.01 µM) of the same compound?
Answer: The IC50 was > 1000 nM.

Question: And the IC50 (second compound 0.0316 µM)?
Answer: The IC50 was > 1000 nM.

Question: What about the IC50 (second compound 0.1 µM) of the same compound?
Answer: The IC50 was > 1000 nM.

Question: What about the IC50 (second compound 0.316 µM) of the same compound?
Answer: Its IC50 is > 1000 nM.

Question: What about the IC50 (second compound 1 µM) of the same compound?
Answer: The IC50 was > 1000 nM.

Question: And the viability, T/C (second compound 0.00316 µM, first compound 0.00316 µM)?
Answer: The viability, T/C was 102%.

Question: What about the viability, T/C (second compound 0.00316 µM, first compound 0.01 µM) of the same compound?
Answer: Its viability, T/C is 92.7%.

Question: What about the viability, T/C [1] of the same compound?
Answer: The viability, T/C was 107%.

Question: What about the viability, T/C [2] of the same compound?
Answer: The viability, T/C was 88.7%.

Question: What about the viability, T/C [3] of the same compound?
Answer: Its viability, T/C is 69.1%.

Question: What about the viability, T/C [4] of the same compound?
Answer: Its viability, T/C is 59.7%.

Question: What about the viability, T/C (second compound 0.01 µM, first compound 0.00316 µM) of the same compound?
Answer: Its viability, T/C is 108%.

Question: What about the viability, T/C (second compound 0.01 µM, first compound 0.01 µM) of the same compound?
Answer: The viability, T/C was 90.1%.

Question: And the viability, T/C [5]?
Answer: Its viability, T/C is 108%.

Question: What about the viability, T/C [6] of the same compound?
Answer: The viability, T/C was 80.5%.

Question: What about the viability, T/C [7] of the same compound?
Answer: Its viability, T/C is 80.2%.

Question: And the viability, T/C [8]?
Answer: The viability, T/C was 77.3%.

Question: What about the viability, T/C (second compound 0.0316 µM, first compound 0.00316 µM) of the same compound?
Answer: Its viability, T/C is 101%.

Question: And the viability, T/C (second compound 0.0316 µM, first compound 0.01 µM)?
Answer: The viability, T/C was 89.8%.

Question: What about the viability, T/C [9] of the same compound?
Answer: The viability, T/C was 88.2%.

Question: What about the viability, T/C [10] of the same compound?
Answer: The viability, T/C was 80.5%.

Question: And the viability, T/C [11]?
Answer: Its viability, T/C is 95.8%.

Question: What about the viability, T/C [12] of the same compound?
Answer: The viability, T/C was 53.9%.

Question: And the viability, T/C (second compound 0.1 µM, first compound 0.00316 µM)?
Answer: The viability, T/C was 116%.

Question: What about the viability, T/C (second compound 0.1 µM, first compound 0.01 µM) of the same compound?
Answer: Its viability, T/C is 102%.

Question: What about the viability, T/C [13] of the same compound?
Answer: The viability, T/C was 89%.

Question: And the viability, T/C [14]?
Answer: The viability, T/C was 93.5%.

Question: What about the viability, T/C [15] of the same compound?
Answer: Its viability, T/C is 83.7%.

Question: What about the viability, T/C [16] of the same compound?
Answer: The viability, T/C was 68.1%.

Question: What about the viability, T/C (second compound 0.316 µM, first compound 0.00316 µM) of the same compound?
Answer: The viability, T/C was 107%.

Question: And the viability, T/C (second compound 0.316 µM, first compound 0.01 µM)?
Answer: The viability, T/C was 108%.

Question: What about the viability, T/C [17] of the same compound?
Answer: Its viability, T/C is 77.5%.

Question: What about the viability, T/C [18] of the same compound?
Answer: Its viability, T/C is 92%.

Question: And the viability, T/C [19]?
Answer: The viability, T/C was 75%.

Question: What about the viability, T/C [20] of the same compound?
Answer: Its viability, T/C is 60.1%.

Question: What about the viability, T/C (second compound 1 µM, first compound 0.00316 µM) of the same compound?
Answer: The viability, T/C was 97.1%.

Question: And the viability, T/C (second compound 1 µM, first compound 0.01 µM)?
Answer: Its viability, T/C is 92.6%.

Question: And the viability, T/C [21]?
Answer: The viability, T/C was 111%.

Question: What about the viability, T/C [22] of the same compound?
Answer: The viability, T/C was 87%.

Question: And the viability, T/C [23]?
Answer: Its viability, T/C is 83.9%.

Question: And the viability, T/C [24]?
Answer: Its viability, T/C is 60%.

Question: How did the IC50 (second compound 0.00316 µM) turn out when CC(C)NCC(C(=O)N1CCN(c2ncnc3c2C(C)CC3O)CC1)c1ccc(Cl)cc1 (centres undefined) + C=CC(=O)N1CCN(c2nc(OCC3CCCN3C)nc3c(F)c(-c4nc(N)cc(C)c4C(F)(F)F)c(Cl)cc23)C(C)C1 was run?
Answer: Its IC50 is 1690 nM.

Question: What about the IC50 (second compound 0.01 µM) of the same compound?
Answer: Its IC50 is 2420 nM.

Question: What about the IC50 (second compound 0.0316 µM) of the same compound?
Answer: Its IC50 is 1630 nM.

Question: What about the IC50 (second compound 0.1 µM) of the same compound?
Answer: Its IC50 is 1540 nM.

Question: And the IC50 (second compound 0.316 µM)?
Answer: The IC50 was 2370 nM.

Question: And the IC50 (second compound 1 µM)?
Answer: Its IC50 is 1340 nM.

Question: What about the viability, T/C [1] of the same compound?
Answer: Its viability, T/C is 93.7%.

Question: And the viability, T/C [2]?
Answer: Its viability, T/C is 97.9%.

Question: What about the viability, T/C [3] of the same compound?
Answer: Its viability, T/C is 78%.

Question: And the viability, T/C [4]?
Answer: Its viability, T/C is 57.4%.

Question: And the viability, T/C (second compound 0.00316 µM, first compound 3.16 µM)?
Answer: Its viability, T/C is 42.8%.

Question: What about the viability, T/C (second compound 0.00316 µM, first compound 10 µM) of the same compound?
Answer: The viability, T/C was 35.3%.

Question: And the viability, T/C [5]?
Answer: Its viability, T/C is 104%.

Question: And the viability, T/C [6]?
Answer: Its viability, T/C is 83.3%.

Question: What about the viability, T/C [7] of the same compound?
Answer: Its viability, T/C is 79%.

Question: What about the viability, T/C [8] of the same compound?
Answer: Its viability, T/C is 62.4%.

Question: What about the viability, T/C (second compound 0.01 µM, first compound 3.16 µM) of the same compound?
Answer: The viability, T/C was 43.8%.

Question: And the viability, T/C (second compound 0.01 µM, first compound 10 µM)?
Answer: The viability, T/C was 34.2%.

Question: And the viability, T/C [9]?
Answer: The viability, T/C was 101%.

Question: And the viability, T/C [10]?
Answer: The viability, T/C was 83.5%.

Question: What about the viability, T/C [11] of the same compound?
Answer: The viability, T/C was 70.7%.

Question: What about the viability, T/C [12] of the same compound?
Answer: Its viability, T/C is 53.2%.

Question: What about the viability, T/C (second compound 0.0316 µM, first compound 3.16 µM) of the same compound?
Answer: Its viability, T/C is 45.3%.

Question: And the viability, T/C (second compound 0.0316 µM, first compound 10 µM)?
Answer: The viability, T/C was 30.5%.

Question: And the viability, T/C [13]?
Answer: Its viability, T/C is 109%.

Question: What about the viability, T/C [14] of the same compound?
Answer: Its viability, T/C is 82.7%.

Question: What about the viability, T/C [15] of the same compound?
Answer: The viability, T/C was 69.2%.

Question: What about the viability, T/C [16] of the same compound?
Answer: The viability, T/C was 55%.

Question: What about the viability, T/C (second compound 0.1 µM, first compound 3.16 µM) of the same compound?
Answer: Its viability, T/C is 45.2%.

Question: And the viability, T/C (second compound 0.1 µM, first compound 10 µM)?
Answer: The viability, T/C was 29.9%.

Question: And the viability, T/C [17]?
Answer: Its viability, T/C is 106%.

Question: And the viability, T/C [18]?
Answer: Its viability, T/C is 102%.

Question: What about the viability, T/C [19] of the same compound?
Answer: The viability, T/C was 79.3%.

Question: And the viability, T/C [20]?
Answer: Its viability, T/C is 65.2%.

Question: What about the viability, T/C (second compound 0.316 µM, first compound 3.16 µM) of the same compound?
Answer: Its viability, T/C is 46.1%.

Question: And the viability, T/C (second compound 0.316 µM, first compound 10 µM)?
Answer: The viability, T/C was 27.3%.

Question: What about the viability, T/C [21] of the same compound?
Answer: Its viability, T/C is 108%.

Question: And the viability, T/C [22]?
Answer: The viability, T/C was 93.9%.

Question: And the viability, T/C [23]?
Answer: The viability, T/C was 79.1%.

Question: What about the viability, T/C [24] of the same compound?
Answer: The viability, T/C was 50.5%.

Question: What about the viability, T/C (second compound 1 µM, first compound 3.16 µM) of the same compound?
Answer: The viability, T/C was 41%.

Question: And the viability, T/C (second compound 1 µM, first compound 10 µM)?
Answer: Its viability, T/C is 28.9%.
